Experimental data as given in US20100204470A1, “METHOD FOR SALT PREPARATION” (Sandoz AG, priority 2006, published 2010).
Counter-ions that a name gives are not always drawn.

How the values were obtained:
[1] = Storage in a dessicator at a humidity level of 33% (hygroscopicity, conversion to hydrous form); type: physicochemical
Description: The present invention also relates to a novel anhydrous hydrochloride salt of Moxifloxacin, herein called form IV. […] More particular, the invention relates to form IV characterized by an X-ray powder diffraction pattern with peaks at about 10.0, 13.2, 15.3, 17.2 and 24.4 degrees 2 theta. The invention also relates to form IV characterized by infrared absorption bands at about 2704, 1720, 1434, 1312 and 1273 cm^−1.
The new anhydrous form IV may preferably be prepared by desolvating Moxifloxacin hydrochloride methylene dichloride solvate by drying in vacuum at about 100° C. […] The invention also relates to pharmaceutical compositions comprising form IV.

[2] = General solubility / stability of the crystalline salt; type: physicochemical; settings: qualitative statement
[3] = compared with monohydrate salt form; disclosed in WO 95/07902; cited from earlier work
[4] = anhydrous vs monohydrate hydrochloride; disclosed in WO 95/07902; cited from earlier work
[5] = Stability of solvate under air drying conditions (desolvation)
[6] = dessicator, humidity level 33%, 48 hours

## COc1c(N2C[C@@H]3CCCN[C@@H]3C2)c(F)cc2c(=O)c(C(=O)O)cn(C3CC3)c12.Cl [Moxifloxacine Hydrochloride Anhydrous Form IV]
[1]; after 48 hours at humidity level 33%
  moisture content after humidity storage: 0.6%
[1]; compared with anhydrous form II (US 5849 752, Bayer) and anhydrous form B (WO 2005/054240, Chemi Spa)
  hygroscopicity relative to other anhydrous forms: lower hygroscopicity
[1]; [6]
  XRPD pattern after humidity storage: no alteration
  conversion to a hydrous form: does not convert to a hydrous form
[1]; initial value
  moisture content before humidity storage: 0.5%

## COc1c(N2C[C@@H]3CCCN[C@@H]3C2)c(F)cc2c(=O)c(C(=O)O)cn(C3CC3)c12 [Moxifloxacine hydrochloride]
[2]
  solubility and/or stability: good solubility and/or stability

## COc1c(C)c2c(c(O)c1C/C=C(\C)CCC(=O)OCCN1CCOCC1)C(=O)OC2 [mycophenolate mofetil hydrochloride]
[3]
  stability characteristics: possessing the stability characteristics of the monohydrate salt form
[4]
  increase in solubility over the monohydrate salt form: two-fold

## Moxifloxacine Hydrochloride Methylene Dichloride Solvate
[1]; 1 day at 33% relative humidity
  hygroscopicity (water uptake): not hygroscopic
[5]
  stability / desolvation under air drying conditions: stable and does not desolvate

## Raloxifene Hydrochloride THF hemisolvate
[5]
  stability / desolvation under air drying conditions: stable and does not desolvate
